System: NRF2
Assay: NQO1 mRNA levels in skin cultured in the device and treated with an NRF2 activator
Format: cell-based
Conditions: tissue treated on Day 0 versus Day 4 of culture in the 384-well device
Method: FIG. 8A is a perspective view of another embodiment of the present invention 341. […] The base has holes (not shown) which receive fixings 349. […] FIG. 8B is a schematic diagram which summarises an experiment in which skin cultured in the apparatus 341 was treated with a small molecule NRF2 activator (TBE-31) in order to evaluate the intracellular viability of the tissue. NRF2 transcriptionally regulates multiple genes that play both direct and indirect roles in activating intracellular anti-oxidative pathways.

Structure (SMILES): C#C[C@]12C=C(C#N)C(=O)C=C1[C@@]1(C)C=C(C#N)C(=O)C(C)(C)[C@@H]1CC2 [TBE-31]
- NRF2 response (NQO1 mRNA levels) in cultured skin: statistically the same
